Where “and” joins values, the source holds several entries; their conditions need not be identical. Equal entries are not always repeated. Inconclusive results and toxic doses are left out.
Test system: nude mice, LOX melanoma ip, survival T/C
Test: NCI In Vivo Anticancer Drug Screen. Data for tumor model Human Amelanotic Melanoma (LOX) (intraperitoneal) in NU/NU BALB/C (nude) mice
Conditions: endpoint: median survival time, higher = longer survival
Method: The antitumor activity of compounds was measured in mice bearing transplantable tumors. Survival or tumor size were measured and the results are expressed as the measurement made in the treated group (T) divided by the measurement made in the vehicle treated control group (C). The tumor model used in this assay is Human Amelanotic Melanoma (LOX) (intraperitoneal) in NU/NU BALB/C (nude) mice

[1] = dose: 100.0 mg/kg/injection, schedule: Q04DX003 (ip), vehicle: Klucel (hydroxypropylcellulose) (HPC)
[2] = dose: 50.0 mg/kg/injection, schedule: Q04DX003 (ip), vehicle: saline with Tween-80
[3] = dose: 100.0 mg/kg/injection, schedule: Q04DX003 (ip), vehicle: saline with Tween-80
[4] = dose: 18.75 mg/kg/injection, schedule: Q04DX003 (ip), vehicle: Klucel (hydroxypropylcellulose) (HPC)
[5] = dose: 37.5 mg/kg/injection, schedule: Q04DX003 (ip), vehicle: Klucel (hydroxypropylcellulose) (HPC)
[6] = dose: 12.5 mg/kg/injection, schedule: Q04DX003 (ip), vehicle: saline
[7] = dose: 25.0 mg/kg/injection, schedule: Q04DX003 (ip), vehicle: saline
[8] = dose: 50.0 mg/kg/injection, schedule: Q04DX003 (ip), vehicle: Klucel (hydroxypropylcellulose) (HPC)

`O=C1C=CC2OC(c3ccccc3)C(O)C2O1` (configuration not stated) was tested, and the T/C (dose: 12.5 mg/kg/injection, schedule: Q04DX003 (ip), vehicle: DMSO) was 105 % of control, the T/C (dose: 25.0 mg/kg/injection, schedule: Q04DX003 (ip), vehicle: DMSO) was 103 % of control and the T/C (dose: 50.0 mg/kg/injection, schedule: Q04DX003 (ip), vehicle: DMSO) was 103 % of control.
`CO[C@@]12[C@H](COC(N)=O)C3=C(C(=O)C(C)=C(N)C3=O)N1C[C@@H]1N[C@@H]12` was tested, and the T/C (dose: 1.34 mg/kg/injection, schedule: Q04DX003 (ip), vehicle: saline) was 116 % of control, the T/C (dose: 1.34 mg/kg/injection, schedule: Q04DX003 (iv), vehicle: saline) was 119 % of control and the T/C (dose: 2.0 mg/kg/injection, schedule: Q04DX003 (ip), vehicle: saline) was 111 % of control. For the same compound, the T/C (dose: 2.0 mg/kg/injection, schedule: Q04DX003 (iv), vehicle: saline) was 166 % of control, the T/C (dose: 3.0 mg/kg/injection, schedule: Q04DX003 (ip), vehicle: saline) was 272 % of control and the T/C (dose: 3.0 mg/kg/injection, schedule: Q04DX003 (iv), vehicle: saline) was 168 % of control. For the same compound, the T/C (dose: 4.5 mg/kg/injection, schedule: Q04DX003 (ip), vehicle: saline) was 116 % of control and the T/C (dose: 4.5 mg/kg/injection, schedule: Q04DX003 (iv), vehicle: saline) was 150 % of control.
With `CN=C(N)N/N=C(\C)c1ccc2oc3ccc(/C(C)=N/NC(N)=NC)cc3c2c1` the T/C (dose: 18.0 mg/kg/injection, schedule: Q04DX003 (ip), vehicle: Klucel (hydroxypropylcellulose) (HPC)) was 102 % of control and 123 % of control, the T/C (dose: 30.0 mg/kg/injection, schedule: Q04DX003 (ip), vehicle: Klucel (hydroxypropylcellulose) (HPC)) was 117 % of control and 99 % of control and the T/C (dose: 83.0 mg/kg/injection, schedule: Q04DX003 (ip), vehicle: Klucel (hydroxypropylcellulose) (HPC)) was 116 % of control. For the same compound, the T/C (dose: 83.33 mg/kg/injection, schedule: Q04DX003 (ip), vehicle: Klucel (hydroxypropylcellulose) (HPC)) was 88 % of control and the T/C [1] was 108 % of control.
For `c1ccc2c3c(c4c(c2c1)CN(C1CCCCC1)CO4)OCN(C1CCCCC1)C3`, the T/C (dose: 18.75 mg/kg/injection, schedule: Q04DX003 (ip), vehicle: water) was 102 % of control, the T/C (dose: 37.5 mg/kg/injection, schedule: Q04DX003 (ip), vehicle: water) was 107 % of control and the T/C (dose: 75.0 mg/kg/injection, schedule: Q04DX003 (ip), vehicle: water) was 123 % of control.
`O=NNc1ccc(Cl)cn1` was tested, and the T/C (dose: 2.5 mg/kg/injection, schedule: Q04DX003 (ip), vehicle: water) was 105 % of control, the T/C (dose: 3.13 mg/kg/injection, schedule: Q04DX003 (ip), vehicle: water) was 111 % of control and the T/C (dose: 5.0 mg/kg/injection, schedule: Q04DX003 (ip), vehicle: water) was 101 % of control. The T/C (dose: 6.25 mg/kg/injection, schedule: Q04DX003 (ip), vehicle: water) was 112 % of control, the T/C (dose: 10.0 mg/kg/injection, schedule: Q04DX003 (ip), vehicle: water) was 118 % of control and the T/C (dose: 20.0 mg/kg/injection, schedule: Q04DX003 (ip), vehicle: water) was 124 % of control.
`C/C(=N\NC(=S)N1CC2CCC(CC2)C1)c1nccs1` was tested, and the T/C (dose: 12.5 mg/kg/injection, schedule: Q04DX003 (ip), vehicle: saline with Tween-80) was 101 % of control, the T/C (dose: 25.0 mg/kg/injection, schedule: Q04DX003 (ip), vehicle: saline with Tween-80) was 107 % of control and the T/C [2] was 118 % of control. The T/C [3] was 118 % of control.
In the case of `N=C(N)c1ccc(N=Nc2c(O)ccc3cc(O)ccc23)cc1`, the T/C [4] is reported as 92 % of control, the T/C [5] is reported as 102 % of control and the T/C (dose: 300.0 mg/kg/injection, schedule: Q04DX003 (ip), vehicle: Klucel (hydroxypropylcellulose) (HPC)) is reported as 95 % of control.
For `COc1cccc2c1C(CO)N1C(C#N)C3CC(C(=O)O)C(C1C2)N3C` (configuration not stated), the T/C [6] was 175 % of control, the T/C (dose: 12.5 mg/kg/injection, schedule: Q04DX003 (ip), vehicle: suspension in saline) was 164 % of control and the T/C [7] was 157 % of control.
With `O=C(/C=C/c1cccnc1)/C=C/c1cccnc1` the T/C (dose: 6.25 mg/kg/injection, schedule: Q04DX003 (ip), vehicle: Klucel (hydroxypropylcellulose) (HPC)) was 104 % of control, the T/C (dose: 12.5 mg/kg/injection, schedule: Q04DX003 (ip), vehicle: Klucel (hydroxypropylcellulose) (HPC)) was 105 % of control and the T/C (dose: 25.0 mg/kg/injection, schedule: Q04DX003 (ip), vehicle: Klucel (hydroxypropylcellulose) (HPC)) was 111 % of control. For the same compound, the T/C [8] was 116 % of control and the T/C [1] was 88 % of control.
`COC(=O)C1(F)C(=O)NC(=O)NC1OC` (configuration not stated) was tested, and the T/C [8] was 110 % of control, the T/C [1] was 98 % of control and the T/C (dose: 200.0 mg/kg/injection, schedule: Q04DX003 (ip), vehicle: Klucel (hydroxypropylcellulose) (HPC)) was 92 % of control. For the same compound, the T/C (dose: 400.0 mg/kg/injection, schedule: Q04DX003 (ip), vehicle: Klucel (hydroxypropylcellulose) (HPC)) was 104 % of control and the T/C (dose: 800.0 mg/kg/injection, schedule: Q04DX003 (ip), vehicle: Klucel (hydroxypropylcellulose) (HPC)) was 94 % of control.
In the case of `C=CC1(C)CC(=O)C2(O)C(C)(O1)C(OC(C)=O)C(O)C1C(C)(C)CCC(O)C12C` (configuration not stated), the T/C (dose: 8.0 mg/kg/injection, schedule: Q04DX003 (ip), vehicle: DMSO) is reported as 102 % of control, the T/C (dose: 16.0 mg/kg/injection, schedule: Q04DX003 (ip), vehicle: DMSO) is reported as 103 % of control and the T/C (dose: 32.0 mg/kg/injection, schedule: Q04DX003 (ip), vehicle: DMSO) is reported as 102 % of control. For the same compound, the T/C (dose: 64.0 mg/kg/injection, schedule: Q04DX003 (ip), vehicle: DMSO) was 91 % of control.
For `COc1cc2c(c(OC)c1OC)-c1cccc(=O)cc1C(NC(C)=O)CC2` (configuration not stated), the T/C [6] was 104 % of control, the T/C [7] was 122 % of control and the T/C (dose: 50.0 mg/kg/injection, schedule: Q04DX003 (ip), vehicle: saline) was 110 % of control. For the same compound, the T/C (dose: 100.0 mg/kg/injection, schedule: Q04DX003 (ip), vehicle: saline) was 106 % of control and the T/C (dose: 200.0 mg/kg/injection, schedule: Q04DX003 (ip), vehicle: saline) was 103 % of control.
`CCCCCNc1ncnc2c(C)[nH]nc12` was tested, and the T/C [4] was 103 % of control, the T/C [5] was 94 % of control and the T/C (dose: 75.0 mg/kg/injection, schedule: Q04DX003 (ip), vehicle: Klucel (hydroxypropylcellulose) (HPC)) was 98 % of control. The T/C (dose: 150.0 mg/kg/injection, schedule: Q04DX003 (ip), vehicle: Klucel (hydroxypropylcellulose) (HPC)) was 94 % of control.
In the case of `O=C1C=C(N2CC2)C(=O)C(N2CC2)=C1N1CC1`, the T/C (dose: 25.0 micrograms/kg/injection, schedule: Q04DX003 (ip), vehicle: saline) is reported as 177 % of control, the T/C (dose: 43.0 micrograms/kg/injection, schedule: Q04DX003 (ip), vehicle: saline) is reported as 116 % of control and the T/C (dose: 100.0 micrograms/kg/injection, schedule: Q04DX003 (ip), vehicle: saline) is reported as 220 % of control. For the same compound, the T/C (dose: 120.0 micrograms/kg/injection, schedule: Q04DX003 (ip), vehicle: saline) was 158 % of control, the T/C (dose: 200.0 micrograms/kg/injection, schedule: Q04DX003 (ip), vehicle: saline) was 277 % of control and the T/C (dose: 333.0 micrograms/kg/injection, schedule: Q04DX003 (ip), vehicle: saline) was 187 % of control.
With `CC(=O)/C(=C\c1ccc(/C=C(\C(C)=O)C(=O)CCN(C)C)cc1)C(=O)CCN(C)C` the T/C [2] was 94 % of control, the T/C [3] was 100 % of control and the T/C (dose: 200.0 mg/kg/injection, schedule: Q04DX003 (ip), vehicle: saline with Tween-80) was 105 % of control. For the same compound, the T/C (dose: 400.0 mg/kg/injection, schedule: Q04DX003 (ip), vehicle: saline with Tween-80) was 107 % of control and the T/C (dose: 800.0 mg/kg/injection, schedule: Q04DX003 (ip), vehicle: saline with Tween-80) was 111 % of control.
`CCC(c1ccc(O)cc1)C(CC)c1ccc(OCCN)cc1` (configuration not stated) was tested, and the T/C (dose: 62.5 mg/kg/injection, schedule: Q04DX003 (ip), vehicle: saline with Tween-80) was 88 % of control, the T/C (dose: 125.0 mg/kg/injection, schedule: Q04DX003 (ip), vehicle: saline with Tween-80) was 104 % of control and the T/C (dose: 250.0 mg/kg/injection, schedule: Q04DX003 (ip), vehicle: saline with Tween-80) was 93 % of control. For the same compound, the T/C (dose: 500.0 mg/kg/injection, schedule: Q04DX003 (ip), vehicle: saline with Tween-80) was 92 % of control and the T/C (dose: 1000.0 mg/kg/injection, schedule: Q04DX003 (ip), vehicle: saline with Tween-80) was 93 % of control.
With `COc1cc2c(cc1OC)-c1c3c(cc4c1[C@@H](C2)N(C)CC4)OCO3` the T/C (dose: 32.0 mg/kg/injection, schedule: Q04DX003 (ip), vehicle: distilled water + Tween-80 + alcohol) was 115 % of control, the T/C (dose: 90.0 mg/kg/injection, schedule: Q04DX003 (ip), vehicle: distilled water + Tween-80 + alcohol) was 109 % of control and the T/C (dose: 150.0 mg/kg/injection, schedule: Q04DX003 (ip), vehicle: distilled water + Tween-80 + alcohol) was 123 % of control.

— PubChem BioAssay AID280 (DTP/NCI, 2004)
